Values quoted from earlier work, collected in US12582591B2, “Increased solubilization of ethylhexyl triazone” (DSM IP Assets B.V., priority 2020, dated 2026).
Where two headings read alike, the source gives them in different places.

Details: for Solubility in esters and alcohols: particularly ethyl acetate, ethanol / alcohols
[1] = listed as UV-filter of the formula (I)

CCCCC(CC)COC(=O)c1ccc(Nc2nc(Nc3ccc(C(=O)OCC(CC)CCCC)cc3)nc(Nc3ccc(C(=O)OCC(CC)CCCC)cc3)n2)cc1 (stereo not shown) [Ethylhexyl triazone, ethylhexyl triazone]
Solubility in esters and alcohols: moderate solubility
Solubility in esters and alcohols [1]: very soluble
Solubility in water and alkanes: very low
Solubility in water and alkanes [1]: insoluble
